In BindingDB's records for doi:10.1021/jm00348a007 (1982):
Blank lines part the entries; values can stand above or below the compound they belong to.

Legend:
[1] = molecular target: Thymidine kinase 2, mitochondrial (rat); test: Competitive inhibition against rat Mitochondrial thymidine kinase
[2] = molecular target: Thymidine kinase 2, mitochondrial (rat); test: Non-competitive inhibition against rat mitochondrial thymidine kinase
[3] = molecular target: Thymidine kinase 2, mitochondrial (rat); test: Competitive inhibition against rat Mitochondrial thymidine kinase; remark: listed apart in the source
[4] = molecular target: Thymidine kinase 2, mitochondrial (rat); test: Noncompetitive inhibition against rat mitochondrial thymidine kinase

SMILES: Cc1cn(C2CC(O)C(CSCCCC(=O)O)O2)c(=O)[nH]c1=O (stereo not given) [4-[3-Hydroxy-5-(5-methyl-2,4-dioxo-3,4-dihydro-2H-pyrimidin-1-yl)-tetrahydro-furan-2-ylmethylsulfanyl]-butyric acid]
- Ki [2]: 8.5 mM

SMILES: Nc1nc(=O)n([C@H]2C[C@H](O)[C@@H](CO)O2)cc1I [4-Amino-1-(4-hydroxy-5-hydroxymethyl-tetrahydro-furan-2-yl)-5-iodo-1H-pyrimidin-2-one]
- Ki [4]: 3.5 mM

Other lines, results leading:

- Ki [1]: 0.056 mM
SMILES: CCO[C@H]1C[C@H](n2cc(C)c(=O)[nH]c2=O)O[C@@H]1CO [1-(4-Ethoxy-5-hydroxymethyl-tetrahydro-furan-2-yl)-5-methyl-1H-pyrimidine-2,4-dione]

- Ki [3]: 1.3 mM
SMILES: Cc1cn([C@H]2C[C@H](O)[C@@H](CO)O2)c(=O)nc1N [4-Amino-1-(4-hydroxy-5-hydroxymethyl-tetrahydro-furan-2-yl)-5-methyl-1H-pyrimidin-2-one]

- Ki [2]: 0.51 mM
SMILES: C/C=C/c1cn([C@H]2C[C@H](O)[C@@H](CO)O2)c(=O)[nH]c1=O [1-(4-Hydroxy-5-hydroxymethyl-tetrahydro-furan-2-yl)-5-propenyl-1H-pyrimidine-2,4-dione(BVDU)]
